# Experimental data published in article PMC11231114 (EJNMMI Research, 2024).
# Where “and” joins values, the source holds several entries; their conditions need not be identical. Identical values can stand only once. Like-named read-outs stand apart in the source and are kept apart here.
# Key:
# [1] = cited from earlier work
# [2] = cited from earlier work; for accumulation in cardiac tissue / heart/liver ratio / heart/lungs ratio: 1 h post-injection
# [3] = system: rat hepatocytes; test: Metabolite profiling in cryopreserved hepatocytes (in vitro MetID); assay type: in vitro ADME; settings: 1 µM SYN2, 37 °C
# Procedure: (§1) The metabolite profiling and characterization experiment of SYN2 molecule (in vitro MetID, Admescope) was conducted to evaluate potential metabolic pathways. In order to characterize the metabolites of SYN2, the compound was incubated in cryopreserved rat, dog and human hepatocytes. Prior to the incubation, the hepatocytes were thawed, suspended in Williams medium E and then centrifuged to receive a target density of about 1 million cells/ml. A SYN2 solution of 1 µM was then added to the hepatocyte suspension and incubated at 37 °C for 0, 30 and 60 min. The incubations were stopped by the addition of acetonitrile, then frozen and centrifuged to remove precipitated proteins. Supernatants were then analysed with ultra-performance liquid chromatography (UPLC) and high-resolution mass spectrometry (HRMS).
# (§2) Compound Discoverer (CD) was used for data mining with manual confirmation for metabolite profiling and characterization.
# [4] = system: dog hepatocytes; test: as above; assay type: in vitro ADME; settings: 1 µM SYN2, 37 °C
# Procedure: as §1, §2
# [5] = system: human hepatocytes; test: as above; assay type: in vitro ADME; settings: 1 µM SYN2, 37 °C
# Procedure: as §1, §2
# [6] = available SPECT and PET tracers
# [7] = human studies, exercise stress subjects
# [8] = human studies, exercise stress subjects, listed as [^18F]flurpiridaz
compound,measurement,setting,value
[82Rb+].[Cl-] [[^82Rb]Rubidium chloride],Effective dose,[1]; [6],0.0011 mSv/MBq
[15OH2] [[^15O]H2O],Effective dose,[1]; [6],0.0011 mSv/MBq
CC(C)(C)n1ncc(OCc2ccc(COCC[18F])cc2)c(Cl)c1=O [[^18F]Flurpiridaz],accumulation in cardiac tissue,[2],3.3 ± 0.3 %ID/g
same,heart/liver ratio,[2],3.7 ± 0.2
same,heart/lungs ratio,[2],12.7 ± 1.4
same,heart/blood ratio,[2],13
same,Effective dose,[1]; [6],0.015 mSv/MBq
same,"Absorbed dose per administrated activity, Adrenals",[1]; [7],1.40E-02 mSv/MBq
same,"Absorbed dose per administrated activity, Brain",[1]; [7],1.10E-02 mSv/MBq
same,"Absorbed dose per administrated activity, Breasts",[1]; [7],1.00E-02 mSv/MBq
same,"Absorbed dose per administrated activity, Gallbladder Wall",[1]; [7],1.50E-02 mSv/MBq
same,"Absorbed dose per administrated activity, Heart Wall",[1]; [7],3.90E-02 mSv/MBq
same,"Absorbed dose per administrated activity, Kidneys",[1]; [7],2.70E-02 mSv/MBq
same,"Absorbed dose per administrated activity, Liver",[1]; [7],1.50E-02 mSv/MBq
same,"Absorbed dose per administrated activity, Lower Large Intestine Wall",[1]; [7],1.40E-02 mSv/MBq
same,"Absorbed dose per administrated activity, Lungs",[1]; [7],1.20E-02 mSv/MBq
same,"Absorbed dose per administrated activity, Muscle",[1]; [7],1.20E-02 mSv/MBq
same,"Absorbed dose per administrated activity, Osteogenic Cells",[1]; [7],2.00E-02 mSv/MBq
same,"Absorbed dose per administrated activity, Ovaries",[1]; [7],1.40E-02 mSv/MBq
same,"Absorbed dose per administrated activity, Pancreas",[1]; [7],1.50E-02 mSv/MBq
same,"Absorbed dose per administrated activity, Red Marrow",[1]; [7],1.50E-02 mSv/MBq
same,"Absorbed dose per administrated activity, Skin",[1]; [7],9.00E-03 mSv/MBq
same,"Absorbed dose per administrated activity, Small Intestine",[1]; [7],1.40E-02 mSv/MBq
same,"Absorbed dose per administrated activity, Spleen",[1]; [7],1.30E-02 mSv/MBq
same,"Absorbed dose per administrated activity, Stomach Wall",[1]; [7],2.40E-02 mSv/MBq
same,"Absorbed dose per administrated activity, Testes",[1]; [7],1.10E-02 mSv/MBq
same,"Absorbed dose per administrated activity, Thymus",[1]; [7],1.30E-02 mSv/MBq
same,"Absorbed dose per administrated activity, Thyroid",[1]; [7],1.40E-02 mSv/MBq
same,"Absorbed dose per administrated activity, Total Body",[1]; [7],1.20E-02 mSv/MBq
same,"Absorbed dose per administrated activity, Upper Large Intestine Wall",[1]; [7],1.40E-02 mSv/MBq
same,"Absorbed dose per administrated activity, Urinary Bladder Wall",[1]; [7],1.60E-02 mSv/MBq
same,"Absorbed dose per administrated activity, Uterus",[1]; [7],1.40E-02 mSv/MBq
same,Effective Dose Equivalent,[1]; [7],1.60E-02 mSv/MBq
same,Effective dose,[1]; [7],1.50E-02 mSv/MBq
same,"Absorbed dose per administrated activity, Heart Wall",[1]; [8],0.0390 mSv/MBq and 0.039 mSv/MBq
same,"Absorbed dose per administrated activity, Kidneys",[1]; [8],0.027 mSv/MBq
same,"Absorbed dose per administrated activity, Stomach Wall",[1]; [8],0.024 mSv/MBq
same,Effective dose,[1]; [8],0.0150 mSv/MBq
CNc1ccc2cc3ccc(N)cc3[n+](CCF)c2c1 [M3],"Relative abundance of metabolites calculated as % of parent (SYN2), Rat",[3]; 30 min,27 % of parent
same,"Relative abundance of metabolites calculated as % of parent (SYN2), Rat",[3]; 60 min,666 % of parent
same,"Relative abundance of metabolites calculated as % of parent (SYN2), Dog",[4]; 30 min,9 % of parent
same,"Relative abundance of metabolites calculated as % of parent (SYN2), Dog",[4]; 60 min,46 % of parent
same,"Relative abundance of metabolites calculated as % of parent (SYN2), Human",[5]; 30 min,1 % of parent
same,"Relative abundance of metabolites calculated as % of parent (SYN2), Human",[5]; 60 min,3 % of parent
[C-]#[N+]CC(C)(C)OC.[C-]#[N+]CC(C)(C)OC.[C-]#[N+]CC(C)(C)OC.[C-]#[N+]CC(C)(C)OC.[C-]#[N+]CC(C)(C)OC.[C-]#[N+]CC(C)(C)OC.[Tc] [[^99mTc]Tc-sestamibi],accumulation in cardiac tissue,[2],2.0 ± 0.3 %ID/g
same,heart/liver ratio,[2],2.4 ± 0.2
same,heart/lungs ratio,[2],5.9 ± 0.5
same,Effective dose,[1]; [6],0.0079 mSv/MBq
same,absorbed dose in kidneys,[1],0.036 mSv/MBq
[13NH3] [[^13N]Ammonia],Effective dose,[1]; [6],0.002 mSv/MBq
CN(C)c1ccc2cc3ccc(N(C)C)cc3nc2c1 [M4],"Relative abundance of metabolites calculated as % of parent (SYN2), Rat",[3]; 30 min,Trace
same,"Relative abundance of metabolites calculated as % of parent (SYN2), Dog",[4]; 30 min,Trace
same,"Relative abundance of metabolites calculated as % of parent (SYN2), Human",[5]; 30 min,1 % of parent
same,"Relative abundance of metabolites calculated as % of parent (SYN2), Human",[5]; 60 min,1 % of parent
CNc1ccc2cc3ccc(N(C)C)cc3[n+](CCF)c2c1 [M1],"Relative abundance of metabolites calculated as % of parent (SYN2), Rat",[3]; 30 min,94 % of parent
same,"Relative abundance of metabolites calculated as % of parent (SYN2), Rat",[3]; 60 min,137 % of parent
same,"Relative abundance of metabolites calculated as % of parent (SYN2), Dog",[4]; 30 min,34 % of parent
same,"Relative abundance of metabolites calculated as % of parent (SYN2), Dog",[4]; 60 min,58 % of parent
same,"Relative abundance of metabolites calculated as % of parent (SYN2), Human",[5]; 30 min,10 % of parent
same,"Relative abundance of metabolites calculated as % of parent (SYN2), Human",[5]; 60 min,19 % of parent
CCOCCP(CCOCC)CCP(CCOCC)CCOCC.CCOCCP(CCOCC)CCP(CCOCC)CCOCC.[O]=[99Tc+]=[O] [[^99mTc]Tc-tetrofosmin],Effective dose,[1]; [6],0.0069 mSv/MBq
[Cl][201Tl] [[^201Tl]Thallium chloride],Effective dose,[1]; [6],0.14 mSv/MBq
